Marks after values point to notes of the source that are not given here.
Key:
Escherichia coli = experiment: MIC and synergy checkerboard assay, broth microdilution; type: cell-based
Description: (§1) The described novel combination was tested against both reference, and clinically resistant strains of S. aureus, E, coli, K. pneumoniae, and P. aeruginosa. Reference and clinical isolates were obtained from the American Type Culture Collection (ATCC, Manasas, VA.) and International Health Management Associates, Inc. (Schaumberg, IL). Bacteria were cultured in trypticase soy broth, concentrated 10-fold by centrifugation, and cryopreserved in the same medium containing 20% glycerol by holding at −80° C. Every two weeks a small amount of frozen culture was removed aseptically, and streaked on fresh trypticase soy agar plates to act as a working inoculum. Following overnight growth at about 37° C., the plates were wrapped in parafilm, and held at about 4° C. Bacteria (4-5 colonies) were then aseptically transferred into broth growth medium for assays as needed.
(§2) Minimum inhibitory concentration (MIC) assays were performed in a manner as described for the CLSI Agar dilution or broth microdilution assay guideline (see, Clinical Laboratory Standards Institute, 2009, Methods for Dilution Antimicrobial Susceptibility Tests for Bacteria That Grow Aerobically; Approved Standard, Eighth Edition, M07-A8, Vol. 29, No. 2). For example, known antibiotics or the compositions described herein were dissolved, serially diluted, and then added to tempered molten Mueller-Hinton Agar before pouring of plates; or were dissolved, and then serially diluted in 100 μL cation-adjusted Mueller-Hinton broth across the assay plate in the classical 2-fold geometric format. D-glucose-6-phosphate was included as a medium supplement in both agar, and broth at a concentration of 50 mg/L. Antibiotic concentrations for agar assay were at the final concentration. Antibiotic concentrations for broth microdilution in each well at this point were double what the final assay concentration would be. Bacterial inocula were prepared by swabbing several colonies from a fresh agar plate, and re-suspending the bacteria to a density that was the 0.5 McFarland turbidity standard, considered close or equivalent to 1×10^8 CFU/mL. For agar dilution, a steers replicator was utilized to deliver 1×10^4 CFU/spot. For broth microdilution, the bacterial inocula were diluted in the cation-adjusted Mueller-Hinton broth to 1×10^6 CFU/mL, and 100 μL was overlayered onto the wells containing a diluted antibiotic or a composition described. Following incubation as per the guideline, results were recorded as growth or no growth, and the lowest concentration of the antibiotic or the composition described where no growth was observed was declared the MIC.
(§3) To assay for synergy of antibacterial combinations, a recognized synergy checkerboard assay, adapted from the CLSI guideline microdilution assay, was utilized (see Eliopoulos, G. M., and Moellering, R. C, Jr., 1996. Antimicrobial Combinations, pg. 330-396. In: Lorian, V. (Ed.), Antibiotics in Laboratory Medicine, 4th Ed., Williams & Wilkins; Baltimore, MD). In the case of the agar dilution method, each antibiotic alone, or in combination was added to agar prior to plate pouring. For broth microdilution, the first compound (or antibiotic or agent) was diluted in cation-adjusted Mueller-Hinton broth across the plate along the horizontal axis with each well in a row containing 50 μL of an identical concentration of compound (or antibiotic). Along the vertical axis a dilution series of the second compound (or antibiotic) was dispensed. At this point the drug concentrations are four-fold of the final desired working concentration. […] Following incubation, wells with no growth are noted. […] FIC=(MIC-A combination/MIC-A alone)+(MIC-B combination/MIC-B alone).
(§4) In the above, FIC: Synergy=FIC<0.5; Additive=FIC>0.5-1; Indifferent=FIC>1-2; Antagonism=FIC>2-4.

K. pneumoniae = experiment: as above; type: cell-based
Description: as §1, §2, §3, §4

Pseudomonas aeruginosa = experiment: as above; type: cell-based
Description: as §1, §2, §3, §4

Staphylococcus aureus = experiment: as above; type: cell-based
Description: as §1, §2, §3, §4

Enterococcus faecalis = experiment: as above; type: cell-based
S. saprophyticus = experiment: MIC and synergy checkerboard assay, broth microdilution (uUTI species); type: cell-based, Staphylococcus saprophyticus
Description: as §2, with “MIC. […]” for “MIC.”

E. faecalis = settings: cited from earlier work
susceptible bacteria = settings: susceptible strains of Escherichia coli and Enterococcus faecalis; cited from earlier work

C[C@@H]1O[C@@H]1P(=O)(O)O [Fosfomycin, cis-1,2-epoxypropyl phosphonic acid]
MIC (Combo as F/DP/SM; second compound as DP/SM) (Escherichia coli; Escherichia coli 846439): 32 µg/mL | MIC (Combo as F/DP/SM; second compound as DP/SM) (Escherichia coli; Escherichia coli 846446): 2 µg/mL | MIC (Combo as F/DP/SM; second compound as DP/SM) (Escherichia coli; Escherichia coli 846450): 16 µg/mL | MIC (Combo as F/DP/SM; second compound as DP/SM) (Escherichia coli; Escherichia coli 857021): 32 µg/mL | MIC (Combo as F/DP/SM; second compound as DP/SM) (Escherichia coli; Escherichia coli 863686): 32 µg/mL | MIC (Combo as F/DP/SM; second compound as DP/SM) (Escherichia coli; Escherichia coli (854535)): 64 µg/mL | MIC (Combo as F/DP/SM; second compound as DP/SM) (Escherichia coli; Escherichia coli (928017)): 64 µg/mL | MIC (Combo as F/DP/SM; second compound as DP/SM) (Escherichia coli; Escherichia coli (ATCC 25922)): 8 µg/mL | MIC (Combo as F/DP/SM; second compound as DP/SM) (K. pneumoniae; K. pneumoniae 848788): >64* μg/ml | MIC (Combo as F/DP/SM; second compound as DP/SM) (K. pneumoniae; K. pneumoniae 857147): 16 µg/mL | MIC (Combo as F/DP/SM; second compound as DP/SM) (K. pneumoniae; K. pneumoniae 857187): 64 µg/mL | MIC (Combo as F/DP/SM; second compound as DP/SM) (K. pneumoniae; K. pneumoniae 868968): >64* μg/ml | MIC (Combo as F/DP/SM; second compound as DP/SM) (K. pneumoniae; K. pneumoniae 868972): 64 µg/mL | MIC (Combo as F/DP/SM; second compound as DP/SM) (K. pneumoniae; K. pneumoniae 869028): >64* μg/ml | MIC (Combo as F/DP/SM; second compound as DP/SM) (K. pneumoniae; K. pneumoniae 875638): 32 µg/mL | MIC (Combo as F/DP/SM; second compound as DP/SM) (K. pneumoniae; K. pneumoniae 892483): >64* μg/ml | MIC (Combo as F/DP/SM; second compound as DP/SM) (K. pneumoniae; K. pneumoniae 926439): 64 µg/mL | MIC (Combo as F/DP/SM; second compound as DP/SM) (Pseudomonas aeruginosa; P. aeruginosa 826882): 64 µg/mL | MIC (Combo as F/DP/SM; second compound as DP/SM) (Pseudomonas aeruginosa; P. aeruginosa 880238): 64 µg/mL | MIC (Combo as F/DP/SM; second compound as DP/SM) (Pseudomonas aeruginosa; P. aeruginosa 906939): 64 µg/mL | MIC (Combo as F/DP/SM; second compound as DP/SM) (Pseudomonas aeruginosa; P. aeruginosa 926474): 32 µg/mL | MIC (Combo as F/DP/SM; second compound as DP/SM) (Pseudomonas aeruginosa; P. aeruginosa 945543): 32 µg/mL | MIC (Combo as F/DP/SM; second compound as DP/SM) (Pseudomonas aeruginosa; P. aeruginosa 945545): 64 µg/mL | MIC (Combo as F/DP/SM; second compound as DP/SM) (Pseudomonas aeruginosa; P. aeruginosa 945748): 64 µg/mL | MIC (Combo as F/DP/SM; second compound as DP/SM) (Pseudomonas aeruginosa; Pseudomonas aeruginosa (924190)): 256* μg/ml | MIC (Combo as F/DP/SM; second compound as DP/SM) (Pseudomonas aeruginosa; Pseudomonas aeruginosa (985543)): 128* μg/ml | MIC (Combo as F/DP/SM; second compound as DP/SM) (Staphylococcus aureus; S. aureus 829025 (MRSA strains)): 4 µg/mL | MIC (Combo as F/DP/SM; second compound as DP/SM) (Staphylococcus aureus; S. aureus 829049 (MRSA strains)): 8 µg/mL | MIC (Combo as F/DP/SM; second compound as DP/SM) (Staphylococcus aureus; S. aureus 903887 (MRSA strains)): 8 µg/mL | MIC (Combo as F/DP/SM; second compound as DP/SM) (Staphylococcus aureus; S. aureus 920516 (MRSA strains)): 2 µg/mL | MIC (Combo as F/DP/SM; second compound as DP/SM) (Staphylococcus aureus; S. aureus 920962 (MRSA strains)): 2 µg/mL | MIC (Combo as F/DP/SM; second compound as DP/SM) (Staphylococcus aureus; S. aureus 927596 (MRSA strains)): 8 µg/mL | MIC (Combo as F/DP/SM; second compound as DP/SM) (Staphylococcus aureus; S. aureus 938125 (MRSA strains)): 4 µg/mL | MIC (Combo as F/DP/SM; second compound as DP/SM) (Staphylococcus aureus; S. aureus 953041 (MRSA strains)): 8 µg/mL | MIC (Combo as F/DP/SM; second compound as DP/SM) (Staphylococcus aureus; S. aureus 956270 (MRSA strains)): 28 µg/mL | MIC (Combo as F/DP/SM; second compound as DP/SM) (Staphylococcus aureus; S. aureus 956362 (MRSA strains)): 16 µg/mL | MIC (Combo as F/DP/SM; second compound as DP/SM) (Staphylococcus aureus; S. aureus 967287 (MRSA strains)): 8 µg/mL | MIC (Combo as F/DP/SM; second compound as DP/SM) (Staphylococcus aureus; S. aureus 974980 (MRSA strains)): 8 µg/mL | MIC (Combo as F/DP/SM; second compound as DP/SM) (Staphylococcus aureus; S. aureus 979234 (MRSA strains)): 16 µg/mL | MIC (Combo as F/DP/SM; second compound as DP/SM) (Staphylococcus aureus; S. aureus 1045190 (MRSA strains)): 2 µg/mL | MIC (Combo as F/DP/SM; second compound as DP/SM) (Staphylococcus aureus; Staphylococcus aureus (918019 - MRSA)): 32 µg/mL | MIC (Combo as F/DP/SM; second compound as DP/SM) (Staphylococcus aureus; Staphylococcus aureus (959797 - MRSA)): 16 µg/mL | MIC (Combo as F/DP/SM; second compound as DP/SM) (Staphylococcus aureus; Staphylococcus aureus (ATCC 29213 - MSSA)): 32 µg/mL | MIC (Combo as F/DP/SM; second compound as DP/SM) (Staphylococcus aureus; Staphylococcus aureus (ATCC 33591)): 64 µg/mL | MIC (Combo as F/DP/SM; second compound as DP/SM) (Staphylococcus aureus; Staphylococcus aureus (MGH-04)): 128* μg/ml | MIC (Combo as F/DP/SM; second compound as DP/SM) (Staphylococcus aureus; Staphylococcus aureus (USA-300 CDC- MRSA)): 64 µg/mL | MIC (Combo as F/DP/SM; second compound as DP/SM) (Enterococcus faecalis; E. faecalis 1082155): 32 µg/mL | MIC (Combo as F/DP/SM; second compound as DP/SM) (Enterococcus faecalis; E. faecalis 1120278): 64 µg/mL | MIC (Combo as F/DP/SM; second compound as DP/SM) (Enterococcus faecalis; E. faecalis 1129099): 4 µg/mL | MIC (Combo as F/DP/SM; second compound as DP/SM) (Enterococcus faecalis; E. faecalis 1175598): 32 µg/mL | MIC (Combo as F/DP/SM; second compound as DP/SM) (Enterococcus faecalis; E. faecalis 10864321): 32 µg/mL | MIC (Combo as F/DP/SM; second compound as DP/SM) (Enterococcus faecalis; Enterococcus faecalis (ATCC 29212)): 64 µg/mL | MIC (Combo as F/DP/SM; second compound as DP/SM) (Enterococcus faecalis; Enterococcus faecalis (MGH-01) (VanA)): 256* μg/ml | MIC (Combo as F/DP/SM; second compound as DP/SM) (Enterococcus faecalis; Enterococcus faecalis (MGH-06)): 128* μg/ml | MIC (Combo as F/DP/SM; second compound as DP/SM) (S. saprophyticus; S. saprophyticus 1119421): 32 µg/mL | MIC (Combo as F/DP/SM; second compound as DP/SM) (S. saprophyticus; S. saprophyticus 1124324): 32 µg/mL | MIC (Combo as F/DP/SM; second compound as DP/SM) (S. saprophyticus; S. saprophyticus 1136894): 64 µg/mL | MIC (E. faecalis): 32 to 128 µg/mL | MIC (susceptible bacteria): ≤ 64 µg/mL

Source: patent publication US11925653B2, “Combination therapy effective against microorganisms, including drug resistant microorganisms” (Fleurir ABX LLC, priority 2021, dated 2024)
